Experimental data reported in ChEMBL document CHEMBL6103629 (J Med Chem, 2025).

Tests used:
Cytochrome P450 1A2 = Cytochrome P450 1A2 (Homo sapiens, UniProt P05177); assay: Inhibition of CYP1A2 in human liver microsomes in the presence of NADPH incubated for 60 mins by LC-MS/MS analysis; format: ADME, Microsome
CYP1A2 = CYP1A2 (Homo sapiens, UniProt P05177); assay: Inhibition of recombinant human CYP1A2 assessed as residual activity at 1 uM in the presence of NADPH incubated for 60 mins by LC-MS/MS analysis relative to control; format: ADME; conditions: read-out: Activity
CYP1A2, sequence (P05177 whole entry): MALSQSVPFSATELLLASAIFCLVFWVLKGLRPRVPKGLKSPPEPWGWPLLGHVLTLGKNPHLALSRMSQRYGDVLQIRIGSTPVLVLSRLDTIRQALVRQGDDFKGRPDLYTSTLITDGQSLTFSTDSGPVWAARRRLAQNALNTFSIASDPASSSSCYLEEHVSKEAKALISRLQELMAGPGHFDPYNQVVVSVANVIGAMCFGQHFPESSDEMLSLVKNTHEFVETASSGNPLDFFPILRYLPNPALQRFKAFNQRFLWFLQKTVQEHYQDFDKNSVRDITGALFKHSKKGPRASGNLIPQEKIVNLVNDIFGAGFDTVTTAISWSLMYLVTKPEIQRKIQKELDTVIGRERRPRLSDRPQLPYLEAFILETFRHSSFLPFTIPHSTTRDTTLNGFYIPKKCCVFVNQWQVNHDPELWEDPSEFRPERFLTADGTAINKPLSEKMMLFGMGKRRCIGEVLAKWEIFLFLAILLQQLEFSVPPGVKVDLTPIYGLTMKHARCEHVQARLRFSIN

Cytochrome P450 2B6 = Cytochrome P450 2B6 (Homo sapiens, UniProt P20813); assay: Inhibition of CYP2B6 in human liver microsomes in the presence of NADPH incubated for 60 mins by LC-MS/MS analysis; format: ADME, Microsome
Cytochrome P450 2B6, sequence (P20813 whole entry): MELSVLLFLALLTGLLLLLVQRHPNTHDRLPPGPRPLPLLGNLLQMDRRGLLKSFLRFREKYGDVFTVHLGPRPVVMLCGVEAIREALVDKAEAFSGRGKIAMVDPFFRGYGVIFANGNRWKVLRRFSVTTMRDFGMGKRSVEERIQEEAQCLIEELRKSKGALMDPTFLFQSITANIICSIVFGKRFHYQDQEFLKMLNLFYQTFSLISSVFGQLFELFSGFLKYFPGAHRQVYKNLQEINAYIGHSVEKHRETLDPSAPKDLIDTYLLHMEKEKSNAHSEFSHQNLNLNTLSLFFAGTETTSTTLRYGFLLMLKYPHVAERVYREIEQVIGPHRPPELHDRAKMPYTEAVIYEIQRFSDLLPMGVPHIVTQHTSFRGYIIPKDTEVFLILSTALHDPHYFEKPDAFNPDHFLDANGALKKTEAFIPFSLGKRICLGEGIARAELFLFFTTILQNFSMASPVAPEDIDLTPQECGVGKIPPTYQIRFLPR

CYP2C19 = CYP2C19 (Homo sapiens, UniProt P33261); assay: Inhibition of recombinant human CYP2C19 assessed as residual activity at 1 uM in the presence of NADPH incubated for 60 mins by LC-MS/MS analysis relative to control; format: ADME; conditions: read-out: Activity
CYP2C19, sequence (P33261 whole entry): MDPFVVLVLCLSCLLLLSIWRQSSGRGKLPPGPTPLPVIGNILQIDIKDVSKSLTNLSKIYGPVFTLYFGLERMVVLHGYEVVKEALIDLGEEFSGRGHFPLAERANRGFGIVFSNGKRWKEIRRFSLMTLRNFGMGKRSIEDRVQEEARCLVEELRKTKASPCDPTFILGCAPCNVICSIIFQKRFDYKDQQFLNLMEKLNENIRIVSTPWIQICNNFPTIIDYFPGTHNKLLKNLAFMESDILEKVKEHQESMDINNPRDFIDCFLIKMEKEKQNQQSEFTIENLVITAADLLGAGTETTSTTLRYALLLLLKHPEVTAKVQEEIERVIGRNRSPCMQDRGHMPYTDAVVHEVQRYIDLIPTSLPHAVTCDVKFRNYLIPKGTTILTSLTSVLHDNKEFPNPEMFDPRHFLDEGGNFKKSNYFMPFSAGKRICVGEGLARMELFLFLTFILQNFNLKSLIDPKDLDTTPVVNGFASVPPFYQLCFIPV

[1] = Induction of CYP3A4 mRNA expression in human primary hepatocyte isolated from YND donor at 0.1 to 10 uM incubated for 72 hrs by real-time PCR analysis; format: ADME, cell-based; conditions: hepatocytes, dose 0.1-10 µM
[2] = Drug distribution in Sprague-Dawley rat brain at 5 mg/kg, IG administrated as single dose measured after 0.5 hrs by LC-MS/MS analysis; format: ADME, organism-based; conditions: po, read-out: Ct
Cytochrome P450 2C9 = Cytochrome P450 2C9 (Homo sapiens, UniProt P11712); assay: Inhibition of CYP2C9 in human liver microsomes in the presence of NADPH incubated for 60 mins by LC-MS/MS analysis; format: ADME, Microsome
Cytochrome P450 2C9, sequence (P11712 whole entry): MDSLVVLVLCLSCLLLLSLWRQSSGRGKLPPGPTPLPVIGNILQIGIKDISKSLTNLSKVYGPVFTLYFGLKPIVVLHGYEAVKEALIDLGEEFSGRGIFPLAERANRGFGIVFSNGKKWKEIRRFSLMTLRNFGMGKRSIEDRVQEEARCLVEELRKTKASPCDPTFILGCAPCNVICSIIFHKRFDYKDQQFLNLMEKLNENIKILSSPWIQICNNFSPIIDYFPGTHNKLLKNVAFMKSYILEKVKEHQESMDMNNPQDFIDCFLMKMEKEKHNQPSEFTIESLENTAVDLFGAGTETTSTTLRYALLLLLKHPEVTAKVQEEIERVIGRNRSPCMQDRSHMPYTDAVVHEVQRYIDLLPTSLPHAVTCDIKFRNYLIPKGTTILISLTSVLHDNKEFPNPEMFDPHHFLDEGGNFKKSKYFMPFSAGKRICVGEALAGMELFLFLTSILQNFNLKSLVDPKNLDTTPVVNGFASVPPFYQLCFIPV

CYP3A4 = CYP3A4 (Homo sapiens, UniProt P08684); assay: Inhibition of recombinant human CYP3A4 assessed as residual activity at 1 uM in the presence of NADPH incubated for 60 mins by LC-MS/MS analysis relative to control; format: ADME; conditions: read-out: Activity
CYP3A4, sequence (P08684 whole entry): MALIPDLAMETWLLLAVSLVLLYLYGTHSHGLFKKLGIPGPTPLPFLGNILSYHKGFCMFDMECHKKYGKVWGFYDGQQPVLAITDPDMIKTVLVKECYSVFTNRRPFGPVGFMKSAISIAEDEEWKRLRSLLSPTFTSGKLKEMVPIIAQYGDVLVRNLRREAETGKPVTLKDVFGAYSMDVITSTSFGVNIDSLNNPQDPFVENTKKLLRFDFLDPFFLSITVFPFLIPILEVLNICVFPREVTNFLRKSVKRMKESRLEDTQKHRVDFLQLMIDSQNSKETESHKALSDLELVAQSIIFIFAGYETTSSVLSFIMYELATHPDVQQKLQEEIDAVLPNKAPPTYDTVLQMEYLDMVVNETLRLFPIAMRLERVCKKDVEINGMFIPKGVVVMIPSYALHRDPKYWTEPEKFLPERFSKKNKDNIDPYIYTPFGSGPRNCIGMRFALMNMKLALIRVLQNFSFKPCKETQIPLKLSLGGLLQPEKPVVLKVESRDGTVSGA

[3] = Drug distribution in Sprague-Dawley rat liver at 5 mg/kg, IG administrated as single dose measured after 0.5 hrs by LC-MS/MS analysis; format: ADME, organism-based; conditions: in vivo, po
[4] = Drug metabolism in human plasma by LC-MS/MS analysis; format: ADME, cell-free
LoVo [5] = assay: Induction of apoptosis in human LoVo cells assessed as early apoptotic cells at 1 uM incubated for 24 hrs by Annexin-V-FITC-PI staining based flow cytometric analysis (reference value: 13.7 %); format: functional
Hepatocyte = assay: Cytotoxicity against human primary hepatocytes isolated from YND donor at 0.1 to 10 uM incubated for 72 hrs by cytotox-glo assay; format: toxicity, cell-based; conditions: dose 0.1-10 µM
[6] = molecular target: Phosphatidylinositol 4,5-bisphosphate 3-kinase catalytic subunit alpha isoform (Homo sapiens, UniProt P42336); assay: Inhibition of PI3Kalpha (unknown origin) preincubated for 15 mins and measured after 60 mins by Z-LYTE screening
Phosphatidylinositol 4,5-bisphosphate 3-kinase catalytic subunit alpha isoform, sequence (P42336 whole entry, canonical isoform): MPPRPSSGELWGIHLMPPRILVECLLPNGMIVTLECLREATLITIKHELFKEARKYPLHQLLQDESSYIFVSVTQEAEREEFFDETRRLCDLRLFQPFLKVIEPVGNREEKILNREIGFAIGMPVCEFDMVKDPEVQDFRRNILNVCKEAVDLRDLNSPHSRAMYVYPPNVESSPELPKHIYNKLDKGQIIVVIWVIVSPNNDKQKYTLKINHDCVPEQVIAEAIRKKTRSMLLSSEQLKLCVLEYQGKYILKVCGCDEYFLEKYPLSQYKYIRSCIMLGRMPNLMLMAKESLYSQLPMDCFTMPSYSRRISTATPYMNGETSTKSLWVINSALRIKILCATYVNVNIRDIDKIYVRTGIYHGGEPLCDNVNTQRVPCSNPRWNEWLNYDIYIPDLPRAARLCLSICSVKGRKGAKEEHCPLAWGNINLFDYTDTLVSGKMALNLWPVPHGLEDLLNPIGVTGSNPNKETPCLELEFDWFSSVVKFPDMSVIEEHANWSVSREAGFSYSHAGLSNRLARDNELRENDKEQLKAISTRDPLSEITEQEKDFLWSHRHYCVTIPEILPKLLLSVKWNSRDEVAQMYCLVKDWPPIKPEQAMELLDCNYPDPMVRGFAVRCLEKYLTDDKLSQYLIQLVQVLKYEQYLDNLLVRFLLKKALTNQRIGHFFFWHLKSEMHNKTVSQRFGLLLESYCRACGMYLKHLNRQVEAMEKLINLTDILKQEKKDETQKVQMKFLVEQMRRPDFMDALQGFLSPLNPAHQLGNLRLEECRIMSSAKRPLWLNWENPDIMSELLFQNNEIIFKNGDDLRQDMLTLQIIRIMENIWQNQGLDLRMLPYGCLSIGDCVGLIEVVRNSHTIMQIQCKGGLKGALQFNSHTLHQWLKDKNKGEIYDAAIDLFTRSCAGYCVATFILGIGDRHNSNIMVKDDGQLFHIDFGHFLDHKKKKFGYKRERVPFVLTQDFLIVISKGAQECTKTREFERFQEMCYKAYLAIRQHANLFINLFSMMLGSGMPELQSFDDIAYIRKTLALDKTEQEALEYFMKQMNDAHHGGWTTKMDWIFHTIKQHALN

[7] = Stability in human plasma assessed as half life by LC-MS/MS analysis; format: ADME, cell-free
Cytochrome P450 2C8 = Cytochrome P450 2C8 (Homo sapiens, UniProt P10632); assay: Inhibition of CYP2C8 in human liver microsomes in the presence of NADPH incubated for 60 mins by LC-MS/MS analysis; format: ADME, Microsome
Cytochrome P450 2C8, sequence (P10632 whole entry): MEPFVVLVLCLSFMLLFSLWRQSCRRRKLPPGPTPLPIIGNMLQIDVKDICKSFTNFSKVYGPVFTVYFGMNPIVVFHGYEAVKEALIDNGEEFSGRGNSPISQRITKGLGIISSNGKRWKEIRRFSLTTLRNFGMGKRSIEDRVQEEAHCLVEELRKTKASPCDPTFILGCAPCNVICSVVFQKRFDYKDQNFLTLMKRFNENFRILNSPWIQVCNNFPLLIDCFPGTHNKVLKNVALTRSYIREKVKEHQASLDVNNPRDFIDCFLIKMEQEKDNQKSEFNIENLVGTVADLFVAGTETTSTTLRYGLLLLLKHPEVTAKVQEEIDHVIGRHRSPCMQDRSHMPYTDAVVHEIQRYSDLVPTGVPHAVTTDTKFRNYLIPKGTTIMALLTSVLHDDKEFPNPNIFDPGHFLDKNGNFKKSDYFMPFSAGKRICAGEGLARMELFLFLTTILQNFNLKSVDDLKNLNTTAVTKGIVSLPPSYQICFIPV

LoVo [8] = assay: Induction of apoptosis in human LoVo cells assessed as viable cells at 1 uM incubated for 24 hrs by Annexin-V-FITC-PI staining based flow cytometric analysis (reference value: 72.1 %); format: functional; conditions: read-out: Activity
[9] = Drug metabolism in Beagle dog plasma by LC-MS/MS analysis; format: ADME, cell-free, Canis lupus familiaris; conditions: 5 h, 1 µM
[10] = Induction of CYP3A4 mRNA expression in human primary hepatocyte isolated from DZM donor at 0.1 to 10 uM incubated for 72 hrs by real-time PCR analysis; format: ADME, cell-based; conditions: hepatocytes, dose 0.1-10 µM
[11] = Permeability across apical to basolateral side in human MDCK-MDR1 cells at 0.1 to 10 uM incubated for 120 mins by LC-MS/MS analysis; format: ADME, cell-based, Canis lupus familiaris; conditions: dog, mdck-mdr1, 2 h, dose 0.1-10 µM
[12] = Drug excretion in Sprague-Dawley rat feces at 5 mg/kg, IG administrated for 48 hrs by LC-MS/MS analysis; format: ADME, organism-based; conditions: in vivo, po
[13] = Stability in CD-1 mouse plasma assessed as half life by LC-MS/MS analysis; format: ADME, cell-free
[14] = Lipophilicity, logP of compound; format: physicochemical; conditions: octanol/water
[15] = Toxicity in Beagle dogs assessed as effect on respiratory system at 5 to 20 mg/kg, po administrated as single dose upto 24 hrs; format: organism-based, Canis lupus familiaris; conditions: dog, in vivo, dose 5-20 mg/kg
CYP2B6 = CYP2B6 (Homo sapiens, UniProt P20813); assay: Inhibition of recombinant human CYP2B6 assessed as residual activity at 1 uM in the presence of NADPH incubated for 60 mins by LC-MS/MS analysis relative to control; format: ADME; conditions: read-out: Activity
CYP2B6, sequence (P20813 whole entry): as the sequence (P20813 whole entry) above

[16] = Toxicity in female CB17 SCID mouse xenografted with human JeKo-1 cells assessed as body weight at 40 mg/kg BID, po administered as 3 days on and 4 days off schedule for 24 days; format: organism-based; conditions: in vivo, 576 h, time 24 day
[17] = Induction of CYP2B6 mRNA expression in human primary hepatocyte isolated from RAS donor at 0.1 to 10 uM incubated for 72 hrs by real-time PCR analysis; format: ADME, cell-based; conditions: hepatocytes, dose 0.1-10 µM
[18] = Toxicity in Beagle dogs assessed as effect on cardiovascular system at 5 to 20 mg/kg, po administrated as single dose upto 24 hrs; format: organism-based, Canis lupus familiaris; conditions: dog, in vivo, dose 5-20 mg/kg
Cytochrome P450 3A4 [19] = molecular target: T1, Cytochrome P450 3A4 (Homo sapiens, UniProt P08684); assay: Inhibition of CYP3A4 in human liver microsomes using testosterone as substrate and in presence of NADPH incubated for 60 mins by LC-MS/MS analysis; format: ADME, Microsome
T1 sequence (P08684 whole entry): as the sequence (P08684 whole entry) above

[20] = Induction of CYP2B6 mRNA expression in human primary hepatocyte isolated from YND donor at 0.1 to 10 uM incubated for 72 hrs by real-time PCR analysis; format: ADME, cell-based; conditions: hepatocytes, dose 0.1-10 µM
[21] = Plasma protein binding in CD-1 mouse at 1 uM incubated for 5 hrs in HTD dialysis in the presence of verapamil by LC-MS/MS analysis relative to control; format: ADME, cell-free; conditions: read-out: PPB (converted)
[22] = Permeability across apical to basolateral side in human Caco-2 cells at 0.1 to 10 uM incubated for 120 mins by LC-MS/MS analysis; format: ADME, cell-based; conditions: caco-2, 2 h, dose 0.1-10 µM
[23] = Stability in Beagle dog plasma assessed as half life by LC-MS/MS analysis; format: ADME, cell-free, Canis lupus familiaris
[24] = Toxicity in female Balb/c nude mouse xenografted with human NCI-H1703 cells assessed as body weight at 40 mg/kg QD, po administered as 3 days on and 4 days off schedule for 4 weeks; format: organism-based; conditions: in vivo, 672 h, time 28 day
[25] = Drug accumulation in female Sprague-Dawley rat at 5 mg/kg, IG measured for 7 days by LC-MS/MS analysis; format: ADME, organism-based; conditions: in vivo, po, 168 h, time 7 day
LoVo [26] = assay: Antitumor activity against human LoVo cells xenografted in female Balb/c nude mouse assessed as tumor growth inhibition at 40 mg/kg QD, po measured every 3 days for 25 days relative to control; format: functional; conditions: 600 h, time 25 day, read-out: TGI
Cytochrome P450 3A4 [27] = molecular target: T1, Cytochrome P450 3A4; assay: Inhibition of CYP3A4 in human liver microsomes using midazolam as substrate and in presence of NADPH incubated for 60 mins by LC-MS/MS analysis; format: ADME, Microsome

Cytochrome P450 1A2, sequence (P05177 whole entry): as the sequence (P05177 whole entry) above

## Cc1nn(-c2cccnc2)c(C)c1-c1cc(N2CC3CCC(C2)O3)nc2c(-c3ccn[nH]3)cnn12.O=C(O)/C=C/C(=O)O
Cytochrome P450 1A2
  IC50: > 100 µM
CYP1A2
  activity at 1 h, 1 µM: 105%
Cytochrome P450 2B6
  IC50: > 100 µM
CYP2C19
  activity at 1 h, 1 µM: 109%
[1]
  Activity: Active
[2]
  concentration at 0.5 h: 4.47 ng/g
Cytochrome P450 2C9
  IC50: 32.8 µM
CYP3A4
  activity at 1 h, 1 µM: 73.3%
[3]
  Drug uptake: Active
[4]
  Drug metabolism: metabolite_notdetected
LoVo [5]
  Activity: 18.2%
Hepatocyte
  Activity: Non-toxic
[6]
  IC50: 3.58 µM
[7]
  half-life: > 2 h
Cytochrome P450 2C8
  IC50: 37.1 µM
LoVo [8]
  viability at 1 µM: 65%
[9]
  Drug metabolism: metabolite_notdetected
[10]
  Activity: Active
[11]
  permeability: Permeable
[12]
  Drug excretion: Active
[13]
  half-life: > 2 h
[14]
  logP: 0.7
[15]
  Activity: Non-toxic
CYP2B6
  activity at 1 h, 1 µM: 94.1%
[16]
  Activity: Non-toxic
[17]
  Activity: Active
[18]
  Activity: Non-toxic
Cytochrome P450 3A4 [19]
  IC50: 41.5 µM
[20]
  Activity: Not_active
[21]
  fraction unbound at 5 h, 1 µM: 0.361
[22]
  permeability: Permeable
[23]
  half-life: > 2 h
[24]
  Activity: Non-toxic
[25]
  Drug uptake: Active
LoVo [26]
  inhibition in vivo at 40 mg/kg: 42.6%
Cytochrome P450 3A4 [27]
  IC50: 48.4 µM
